We go through ten compounds from patent publication US12291513B2, “Pyridinium derivatives made by hydrothermal synthesis for use as anolytes in electrochemical cells” (Wisconsin Alumni Research Foundation, priority 2021, dated 2025).

For data set [1] the following is noted: cited from earlier work; for Anolyte-limiting RFB Stability / RFB Viologen Molarity (1e^−): Table 1, comparison anolytes.
The conditions of data set [2]: same electrolyte conditions; cited from earlier work.
Data set [3] is described as follows: Cyclic voltammetry (formal potentials, Randles-Sevcik diffusion coefficients). The data set is classed as physicochemical. Here is the method:
(§1) CV and EIS experiments were ran using a PalmSens4 potentiostat with the PSTrace software. Electrochemical experiments were performed in 1.0 M NaCl supporting electrolyte using 15 mM of active material at room temperature (18° C.). Formal potentials for the redox couples were estimated by taking the average potential between the cathodic and anodic peak. Diffusional behavior was investigated by varying the scan rate between 10-100 mV·s^−1 for the first electron reduction and 50-200 mV·s^−1 for the second electron reduction, and the diffusion constants of the reduced and oxidized states (D^R and D^O) were determined via the Randles-Sevcik equation assuming ideal reversible behavior (FIG. 12D). Potentiostatic EIS measurements were used for determination of a combined diffusional constant of the reduced and oxidized states (D^EIS) and of the standard electron kinetic rate constant (k^o). These EIS measurements were performed at the formal reduction potential (held for 30 seconds before measurement) in which the concentration of the two redox states at the electrode surface were assumed to be the same and equal to half of the initially prepared redox species concentration.
(§2) A glassy carbon working electrode (CH Instruments, 0.0707 cm^2), a saturated calomel reference electrode (SCE, CH Instruments, +0.241 V vs. SHE), and a platinum wire counter electrode were used for both CV and EIS measurements. The working electrode was polished with 1 μm, 0.3 μm, and 0.05 μm alumina slurry successively. All electrodes were rinsed with deionized water in between measurements.
CVs were taken at various scan rates in order to determine the diffusion coefficients via the Randles-Sevcik relation (Eqn. 1) where ip is the peak current in Amps, n is number of electrons transferred, F is Faraday's constant, A is electrode surface area in cm^2, C is the redox species concentration in mole·cm^−3, R is the ideal gas constant, T is temperature, D is the diffusion coefficient, and v is scan rate in V/s. The anodic peak current […] determines the diffusion coefficient of the reduced state (D^R) while the cathodic peak current (ip,a) determines the diffusion coefficient of the oxidized state (D^O). ip=0.4463n^3/2·F^3/2·A·C·R^−1/2·T^−1/2·D^1/2·v^1/2 Eqn. 1

Data set [4] can be described thus: Electrochemical impedance spectroscopy (EIS). The following applies: for EIS D / EIS i^0 / EIS k^0: Example 2. The class given is physicochemical. Here is the method:
as §1, §2
Potentiostatic EIS measurements were taken at the formal potential in which the reduction and oxidation processes are at equilibrium and the concentrations of the reduced and oxidized states can be assumed equal. This permitted simple calculation of the standard kinetic rate constant (k^o) via Eqn. 2 where R is the ideal gas constant, T is temperature, n is number of electrons, RCT is the charge-transfer resistance, F is Faraday's constant, A is the electrode surface area in cm^2, and C is the concentration of either the oxidized or reduced form at the electrode surface in mole cm^−3 (which is assumed to be half of the initially prepared redox species concentration, C═C^O═C^R=0.5 Cinitial).
A combined diffusion coefficient of the reduced and oxidized state (D^EIS) can also be determined using Eqn. 3, where σ is the Warburg diffusional impedance variable and all other variables have the previously defined meaning.
RCT and σ can be determined by fitting the impedance spectrum to the ideal Randles equivalent circuit for a 3-electrode system where Ru is the uncompensated resistance between the working and reference electrode, RCT is the charge transfer resistance between the working electrode and the redox species, WD is the Warburg diffusional element, and CPE is the constant phase element that represents capacitive behavior of the working electrode.
The raw data was fitted based on this equivalent circuit using the Z-Fitting tool on the PSTrace software and with the Levenberg-Marquardt algorithm across the entire measured frequency range. For the second redox state, D2^EIS were 3.6×10^−6 cm^2·s^−1 and 3.8×10^−6 cm^2·s^−1 and k2^o were 0.13 cm·s^−1 and 0.23 cm·s^−1 for Dex-Vi and BTMAP-Vi, respectively.

For data set [5] the following is noted: Selemion DSV membrane; cited from earlier work.
Data set [6] is described as follows: Solubility in pure water. To be noted: Example 2. The data set is classed as physicochemical. The method, then:
A measured amount of Dex-Vi was partially dissolved in pure water. The solution was then centrifuged. The supernatant was decanted, and the volume was measured. The remainder of the solid was dried in a vacuum oven and weighed. Finally, the weight of the remaining Dex-Vi was subtracted from the initial added mass to obtain the amount dissolved in the supernatant, permitting calculation of the maximum soluble concentration.

The nature of data set [7]: Viscosity (rheometer). The data set is classed as physicochemical. To be noted: 1M, 25° C. The method, then:
Viscosity measurements were carried out using an Ares G2 rheometer (TA Instruments) with an advanced Peltier system at 25° C.

The nature of data set [8]: Degradation in 1M KOH. The data set is classed as physicochemical.
For data set [9] the following is noted: Table 1, MV; cited from earlier work.
The conditions of data set [10]: Table 1, MV; cited from earlier work. The source holds these as a separate data set.

Read-outs that look alike come from different tables or passages of the source. Marks after values point to notes of the source that are not given here.

Take `C[N+](C)(C)CCC[n+]1ccc(-c2cc[n+](CCC[N+](C)(C)C)cc2)cc1.[Cl-].[Cl-].[Cl-].[Cl-]` [BTMAP-Vi, bis(3-trimethylammonio)propyl viologen tetrachloride, reference compound]: in data set [1] (DeBruler et al., 2017), the “reported concentration when both electrons are utilized” value is reported as 0.25 M. In data set [1], the “Anolyte-limiting RFB Stability” value is 36.5% decay/year and the “RFB Viologen Molarity (1e^−)” value was 1.5. Besides, the “reported symmetric cell decay rate” value in data set [2] is reported as 0.0016 % per day. For the same compound, the “first electron formal potential (E1^0)” value in [3] (15 mM in 1.0 M NaCl, 18° C.) is −0.349 V vs. SHE. Moreover, in data set [3] (Table 1), the “E1^0” value is −0.349 V vs. SHE and the “E2^0” value is listed as −0.713 V vs. SHE. Besides, in data set [3] (first redox state, 3+ species), the “reduced state diffusion coefficient (D1^R)” value is recorded as 2.7×10^−6 cm^2·s^−1. Also, in data set [3] (first redox state, 4+ species), the “oxidized state diffusion coefficient (D1^O)” value is 2.4×10^−6 cm^2·s^−1. Further, in data set [3] (second redox state), the “D2^O” value is given as 2.3×10^−6 cm^2·s^−1 and the “D2^R” value is listed as 2.5×10^−6 cm^2·s^−1. Also, the “second electron formal potential (E2^0)” value in [3] (vs. SHE, 15 mM in 1.0 M NaCl, 18° C.) is −0.713 V. Moreover, in data set [4] (Table 1), the “k1^0” value came to 0.089 cm/s. Further, in [4] (first reduction), the “combined diffusion coefficient (D1^EIS)” value was 4.1×10^−6 cm^2·s^−1 and the “standard rate constant (k1^0)” value came out at 0.089 cm/s. For the same compound, in data set [4] (second redox state), the “D2^EIS” value is 3.8×10^−6 cm^2·s^−1 and the “k2^o” value was found to be 0.23 cm/s. Besides, the “permeance, reported value” in data set [5] is 6.7×10^−10 cm^2·s^−1.
Take `OCCCC[n+]1ccc(-c2cc[n+](CCCCO)cc2)cc1.[Cl-].[Cl-]` [ButOH-Vi]: the “Water Solubility” value in data set [6] is 1360 mM. Moreover, in data set [7], the “Viscosity at 1M, 25° C.” value is listed as 1.6 cP. For the same compound, in data set [4], the “EIS D” value stood at 2.36E−05 cm^2/s, the “EIS i^0” value was determined as 1.25E−05 A and the “EIS k^0” value came out at 0.000244 cm/s.
Regarding `C[N+](C)(C)CC(O)C[n+]1ccc(-c2cc[n+](CC(O)CO)cc2)cc1.[Cl-].[Cl-].[Cl-]` (centres unmarked) [Dex-DiOH-Vi], the “Water Solubility” value in data set [6] was found to be 1730 mM. Further, the “Viscosity at 1M, 25° C.” value in [7] is given as 3.9 cP. In addition, in data set [4], the “EIS D” value is listed as 5.562E−06 cm^2/s, the “EIS i^0” value came to 6.20E−03 A and the “EIS k^0” value was 0.121 cm/s. Also, in [8], the “Degradation in 1M KOH, k” value was 4.06e-06 s⁻¹.
Turning to `C[N+](C)(C)CC(O)C[n+]1ccc(-c2cc[n+](CC(O)CS(=O)(=O)[O-])cc2)cc1.[Cl-].[Cl-]` (centres unmarked) [Dex-SHOP-Vi], in [6], the “Water Solubility” value was found to be 1270 mM. Besides, in [4], the “EIS D” value is 4.497E−06 cm^2/s, the “EIS i^0” value was 1.57E−03 A and the “EIS k^0” value stood at 0.0307 cm/s.
Take `O=S(=O)([O-])CC[n+]1ccc(-c2cc[n+](CC(O)CO)cc2)cc1.[Cl-]` (centres unmarked) [DiOH-EtS-Vi]: the “Water Solubility” value in data set [6] came to 1260 mM. Besides, in data set [7], the “Viscosity at 1M, 25° C.” value turned out to be 2.9 cP. For the same compound, in data set [4], the “EIS D” value was 8.134E−06 cm^2/s, the “EIS i^0” value is reported as 7.76E−03 A and the “EIS k^0” value came to 0.152 cm/s. Also, the “Degradation in 1M KOH, k” value in data set [8] came out at 4.4e-06 s⁻¹.
With `O=S(=O)([O-])CC(O)C[n+]1ccc(-c2cc[n+](CC(O)CO)cc2)cc1.[Cl-]` (centres unmarked) [DiOH-SHOP-Vi], in data set [6], the “Water Solubility” value was under 500 mM. For the same compound, in [4], the “EIS D” value came out at 5.419E−06 cm^2/s, the “EIS i^0” value is 4.06E−03 A and the “EIS k^0” value came out at 0.0794 cm/s.
As to `OCC(O)C[n+]1ccc(-c2cc[n+](CC(O)CO)cc2)cc1.[Cl-].[Cl-]` (centres unmarked) [DiOH-Vi], in data set [6], the “Water Solubility” value came out at 1990 mM. The “Viscosity at 1M, 25° C.” value in data set [7] came to 3.0 cP. In [4], the “EIS D” value is given as 6.622E−06 cm^2/s, the “EIS i^0” value stood at 1.14E−03 A and the “EIS k^0” value came to 0.0222 cm/s. The “Degradation in 1M KOH, k” value in data set [8] came to 2.296e-06 s⁻¹.
`OCC[n+]1ccc(-c2cc[n+](CCO)cc2)cc1.[Cl-].[Cl-]` [EtOH-Vi]: the “Water Solubility” value in data set [6] was 2510 mM. In addition, the “Viscosity at 1M, 25° C.” value in data set [7] was found to be 2.4 cP. In addition, in data set [4], the “EIS D” value came to 9.868E−06 cm^2/s, the “EIS i^0” value was determined as 4.53E−03 A and the “EIS k^0” value is 0.0885 cm/s.
Consider `O=S(=O)([O-])CC[n+]1ccc(-c2cc[n+](CCS(=O)(=O)[O-])cc2)cc1` [EtS-Vi], for which the “Water Solubility” value in data set [6] worked out at 530 mM. For the same compound, in [4], the “EIS D” value came to 5.2921E−06 cm^2/s, the “EIS i^0” value is on record as 3.47E−03 A and the “EIS k^0” value was 0.0677 cm/s.
As for `C[n+]1ccc(-c2cc[n+](C)cc2)cc1` [MV], in data set [1], the “Anolyte-limiting RFB Stability” value is reported as over 547.5%* % decay/year and the “RFB Viologen Molarity (1e^−)” value is recorded as 0.5. In data set [9], the “E1^0” value was −0.450/NA V vs. SHE. Besides, in data set [10], the “k1^0” value is 0.00028 cm/s.
